Experiments:
[1] = Pharmacokinetics assay in SD rats after intragastrical administration; format: in vivo; conditions: both sexes, Sprague-Dawley, rat, plasma, po, 5 mg/kg
Procedure: Test Example 3. Pharmacokinetics Assay of the Compounds of Examples 1, 2, 3 and 9 of the Present Invention
SD rats were used as test animals. The drug concentration in plasma at different time points was determined by LC/MS/MS after intragastrical administration of the compounds of Examples 1, 2, 3 and 9 to the rats. The pharmacokinetic behavior of the compounds of the present invention was studied and evaluated in rats.
16 healthy adult Sprague-Dawley (SD) rats, half male and half female, were purchased from SINO-BRITSH SIPPR/BK LAB. ANIMAL LTD., CO, with Certificate No.: SCXK (Shanghai) 2008-0016.
The appropriate amount of each compound was weighed, and added with 0.5% CMC-Na (containing 1% Tween 80) to prepare a 1.0 mg/mL suspension by grinding.
After an overnight fast, 16 SD rats were divided into 4 groups equally, half male and half female, and administered intragastrically the test compounds at an administration volume of 5 mL/kg.
Blood (0.2 mL) was taken from the orbital sinus before administration and at 0.5, 1.0, 2.0, 4.0, 6.0, 8.0, 11.0, and 24.0 hours after administration. The samples were stored in heparinized tubes, and centrifuged for 10 minutes at 3,500 rpm to separate the blood plasma. The plasma samples were stored at −20° C.
The plasma concentration of the test compounds in rat plasma after intragastric administration was determined by LC-MS/MS.
Pharmacokinetic parameters of the compounds of Examples 1, 2, 3 and 9 of the present invention are shown below: […]

[2] = target: EZH2-Y641F (Homo sapiens (Human), UniProt Q15910, Y641F); test: EZH2-Y641F mutant enzyme activity assay (HTRF); format: biochemical; conditions: read-out: IC50 for inhibiting the activity of enzyme EZH2-Y641F
Procedure: (§1) Histone H3 biotin labeling and S-adenosyl methionine were respectively diluted to 50 nM and 50 μM with a kinase buffer, then added to a 384-well plate at 4 μl/well. The test compound was diluted with a kinase buffer (it was diluted from the highest concentration 30 μM in 10 fold concentration gradient to 7 concentration points), then added to the 384-well microtiter plate at 4 μl/well. The plate was incubated at room temperature for 2 hours. Histone H3K27 Me3 monoclonal antibody and Streptavidin-XL665 were diluted to 30 nM and 500 nM by HTRF detection buffer, then added to the 384-well microplate at 10 µl/well and incubated for 1 hour. A well without an EZH2 enzyme and a compound was used as a negative control, and a well with an EZH2 enzyme but without a compound was used as a positive control. […] The compound logarithm concentration vs the inhibition percentage relative to the positive control well was plotted using GraphPad Prism, then the IC50 values were calculated.

[3] = test system: Pfeiffer cells; test: In vitro anti-tumor cell growth assay (CellTiter-Glo), Pfeiffer; format: cell-based; conditions: Homo sapiens, 120 h; Pfeiffer cells (A677G mutant), 5 days; read-out: IC50 for inhibiting the growth activity of tumor cells (Pfeiffer) in vitro
Procedure: (§2) Test Example 2. Assay for Determining In Vitro Anti-Tumor Cell Growth Activity of the Example Compounds of the Present Invention
(§3) This method was used to determinate the inhibitory effect of the compounds of the present invention on the growth activity of tumor cells (Pfeiffer or WSU-DLCL2) in vitro. Pfeiffer cells carry A677G mutant, and WSU-DLCL2 cells carry Y641F mutant.
(§4) The lymphoma suspension cell line (Pfeiffer or WSU-DLCL2) was cultured in a RPMI-1640 medium containing 10% inactivated Fetal Bovine Serum, 100 U/mL penicillin, and 100 μg/mL streptomycin, and incubated in an incubator with 5% carbon dioxide at 37° C. under a saturated humidity condition, and passaged every 3-4 days.
(§5) A cell sudpension was prepared with a fresh cell medium, added to a 96-well cell culture plate at 8000 cells/well (Pfeiffer) or 2000 cells/well (WSU-DLCL2), and incubated in 5% carbon dioxide at 37° C. incubator overnight. On the day of the experiment, the EZH2 test compounds (final concentration: 20000, 2000, 200, 20, 2, 0.2 nM) were added into the experimental wells for 3 parallel wells per group. A control well with the medium alone but without cells was set up to obtain the background luminescent value. The cell culture plate was incubated in an incubator with 5% carbon dioxide at 37° C. for 5 days.
(§6) After the compounds were applied to the cells for 5 days, the cell culture plate was placed at room temperature for 30 minutes, then a CellTiter-Glo reagent equal to the volume of cell culture medium was added to each well. The contents were mixed on a shaker for 10 minutes, and the […] signal values were recorded. The cell growth inhibition rate was calculated, and the formula was: cell growth inhibiton rate=[(negative control control−experimental group)/(negative control group−background luminescent value)]×100%. The IC50 values (half inhibition rate IC50, i.e., a drug concentration that is required for 50% cell growth inhibition rate) were calculated by software from the cell growth inhibiton rate and the corresponding concentration.

[4] = test system: WSU-DLCL2 cells; test: In vitro anti-tumor cell growth assay (CellTiter-Glo), WSU-DLCL2; format: cell-based; conditions: Homo sapiens, WSUDLCL2, 120 h; WSU-DLCL2 cells (Y641F mutant), 5 days; read-out: IC50 for inhibiting the growth activity of tumor cells (WSU-DLCL2) in vitro
Procedure: as §2, §3, §4, §5, §6

[5] = target: EZH2-A677G (Homo sapiens (Human), UniProt Q15910, A677G); test: EZH2-A677G mutant enzyme activity assay (HTRF); format: biochemical; conditions: read-out: IC50 for inhibiting the activity of enzyme EZH2-A677G
Procedure: as §1

EZH2-A677G, sequence (Q15910 whole entry A677G): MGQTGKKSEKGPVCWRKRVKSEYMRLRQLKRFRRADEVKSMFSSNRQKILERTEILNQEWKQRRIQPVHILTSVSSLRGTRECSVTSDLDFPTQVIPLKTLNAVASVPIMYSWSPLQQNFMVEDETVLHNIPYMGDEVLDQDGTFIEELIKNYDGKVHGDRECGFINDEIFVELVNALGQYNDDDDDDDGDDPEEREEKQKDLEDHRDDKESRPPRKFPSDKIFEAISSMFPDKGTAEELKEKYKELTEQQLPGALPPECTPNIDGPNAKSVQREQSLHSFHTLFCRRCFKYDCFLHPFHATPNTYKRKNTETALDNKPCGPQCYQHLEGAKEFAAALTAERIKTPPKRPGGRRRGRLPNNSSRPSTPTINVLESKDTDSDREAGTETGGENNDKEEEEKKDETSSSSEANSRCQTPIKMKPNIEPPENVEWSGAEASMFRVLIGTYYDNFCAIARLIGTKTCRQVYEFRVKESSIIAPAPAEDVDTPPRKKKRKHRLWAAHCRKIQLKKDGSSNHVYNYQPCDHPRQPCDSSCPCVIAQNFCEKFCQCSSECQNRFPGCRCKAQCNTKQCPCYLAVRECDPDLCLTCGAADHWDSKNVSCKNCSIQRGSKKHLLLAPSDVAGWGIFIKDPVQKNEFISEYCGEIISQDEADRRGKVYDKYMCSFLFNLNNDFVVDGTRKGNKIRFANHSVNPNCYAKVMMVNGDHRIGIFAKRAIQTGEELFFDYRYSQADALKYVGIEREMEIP
EZH2-A677G, sequence (O75530 whole entry partner): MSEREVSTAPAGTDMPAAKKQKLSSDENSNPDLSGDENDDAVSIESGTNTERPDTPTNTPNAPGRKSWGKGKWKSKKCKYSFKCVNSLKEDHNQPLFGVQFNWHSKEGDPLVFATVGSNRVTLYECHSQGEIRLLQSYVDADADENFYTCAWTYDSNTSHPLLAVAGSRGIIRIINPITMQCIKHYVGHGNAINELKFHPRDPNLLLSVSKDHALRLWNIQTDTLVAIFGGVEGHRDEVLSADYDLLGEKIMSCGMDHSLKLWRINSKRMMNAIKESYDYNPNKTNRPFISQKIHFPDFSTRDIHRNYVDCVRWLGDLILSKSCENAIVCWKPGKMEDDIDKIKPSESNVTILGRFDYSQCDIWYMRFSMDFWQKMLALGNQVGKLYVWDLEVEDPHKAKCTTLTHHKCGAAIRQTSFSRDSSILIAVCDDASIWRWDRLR
EZH2-A677G, sequence (Q15022 whole entry partner): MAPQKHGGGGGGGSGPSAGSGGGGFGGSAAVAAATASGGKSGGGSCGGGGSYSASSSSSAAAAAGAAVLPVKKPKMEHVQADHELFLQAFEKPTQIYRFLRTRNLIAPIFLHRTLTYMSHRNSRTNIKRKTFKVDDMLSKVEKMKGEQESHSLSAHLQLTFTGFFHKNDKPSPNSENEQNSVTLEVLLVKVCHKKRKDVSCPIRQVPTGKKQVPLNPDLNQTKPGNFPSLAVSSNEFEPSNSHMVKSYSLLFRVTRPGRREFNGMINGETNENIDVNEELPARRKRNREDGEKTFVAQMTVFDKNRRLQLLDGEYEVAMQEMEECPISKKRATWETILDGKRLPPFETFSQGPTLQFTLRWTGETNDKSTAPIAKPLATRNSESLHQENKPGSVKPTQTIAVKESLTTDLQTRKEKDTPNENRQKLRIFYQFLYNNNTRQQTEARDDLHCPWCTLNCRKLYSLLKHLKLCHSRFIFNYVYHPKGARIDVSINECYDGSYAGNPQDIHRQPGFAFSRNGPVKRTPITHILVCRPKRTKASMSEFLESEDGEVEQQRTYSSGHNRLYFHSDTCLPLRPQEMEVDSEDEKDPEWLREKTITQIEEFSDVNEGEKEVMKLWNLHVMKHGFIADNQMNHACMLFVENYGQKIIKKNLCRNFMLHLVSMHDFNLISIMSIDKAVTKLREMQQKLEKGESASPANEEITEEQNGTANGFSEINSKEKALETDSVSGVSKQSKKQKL
EZH2-A677G, sequence (Q09028 whole entry partner): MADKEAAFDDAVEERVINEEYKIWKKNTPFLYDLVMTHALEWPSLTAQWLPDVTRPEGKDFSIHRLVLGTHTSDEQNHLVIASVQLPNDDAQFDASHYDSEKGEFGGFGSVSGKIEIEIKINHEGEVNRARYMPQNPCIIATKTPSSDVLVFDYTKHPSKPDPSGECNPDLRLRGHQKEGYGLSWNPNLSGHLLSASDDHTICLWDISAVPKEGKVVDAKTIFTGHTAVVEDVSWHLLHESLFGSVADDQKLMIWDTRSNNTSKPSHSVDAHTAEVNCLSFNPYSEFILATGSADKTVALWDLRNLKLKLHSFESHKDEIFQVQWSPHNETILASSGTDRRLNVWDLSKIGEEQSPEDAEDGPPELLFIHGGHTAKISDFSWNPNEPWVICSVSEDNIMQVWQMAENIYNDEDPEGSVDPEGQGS
EZH2-A677G, sequence (Q6ZN18 whole entry partner): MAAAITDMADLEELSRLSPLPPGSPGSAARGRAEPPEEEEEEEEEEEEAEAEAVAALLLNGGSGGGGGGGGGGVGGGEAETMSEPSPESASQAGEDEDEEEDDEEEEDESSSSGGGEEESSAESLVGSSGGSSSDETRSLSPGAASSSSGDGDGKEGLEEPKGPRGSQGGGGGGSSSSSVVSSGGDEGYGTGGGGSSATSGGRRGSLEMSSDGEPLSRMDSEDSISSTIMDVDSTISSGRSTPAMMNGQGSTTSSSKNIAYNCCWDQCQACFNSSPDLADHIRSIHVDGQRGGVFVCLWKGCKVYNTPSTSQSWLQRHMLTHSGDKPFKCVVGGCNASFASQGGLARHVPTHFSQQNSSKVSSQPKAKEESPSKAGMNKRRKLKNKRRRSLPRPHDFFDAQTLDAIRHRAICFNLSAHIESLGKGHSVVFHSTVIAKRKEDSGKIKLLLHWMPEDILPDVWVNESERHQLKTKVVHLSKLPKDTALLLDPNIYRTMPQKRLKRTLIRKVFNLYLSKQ
EZH2-Y641F, sequence (Q15910 whole entry Y641F): as the sequence (Q15910 whole entry A677G) above, with Y641F, G677A counted along it
EZH2-Y641F, sequence (O75530 whole entry partner): as the sequence (O75530 whole entry partner) above
EZH2-Y641F, sequence (Q15022 whole entry partner): as the sequence (Q15022 whole entry partner) above
EZH2-Y641F, sequence (Q09028 whole entry partner): as the sequence (Q09028 whole entry partner) above
EZH2-Y641F, sequence (Q6ZN18 whole entry partner): as the sequence (Q6ZN18 whole entry partner) above

Work on `CCc1c(N(CC)C2CCOCC2)cc2oc(C3CCN(C(C)C)CC3)cc2c1C(=O)NCc1c(C)cc(C)[nH]c1=O` [Example 9, N-((4,6-Dimethyl-2-oxo-1,2-dihydropyridin-3-yl)methyl)-5-ethyl-6-(ethyl(tetrahydro-2H-pyran-4-yl)amino)-2-(1-isopropylpiperidin-4-yl)benzofuran-4-carboxamide] yielded a Vd/F ([1]; read-out: Apparent Distribution Volume Vz/F) of 35.1 ± 37.1 L/kg, an AUC ([1]; read-out: Area Under Curve AUC) of 274 ± 180 ng·h/mL and a CL/F ([1]; read-out: Clearance CL/F) of 562 ± 592 mL/min/kg. It also gave a half-life ([1]; read-out: Half-Life t1/2 (converted)) of 0.719 ± 0.15 h, an MRT ([1]; read-out: Mean Residence Time MRT) of 3.48 ± 0.107 h and a Cmax ([1]; read-out: Plasma Conc. Cmax) of 79.1 ± 50.7 ng/mL. It also gave an IC50 [2] of 4 nM, an IC50 [3] of 7 nM and an IC50 [4] of 55 nM. The IC50 [5] was 5.7 nM.

Reference: patent US10759787B2, “Benzofuran derivative, preparation method thereof and use thereof in medicine” (Jiangsu Hengrui Medicine Co., Ltd., priority 2015, dated 2020)
